Patent US6677368B2, “4-aryl substituted indolinones” (Sugen, Inc., priority 2000, dated 2004)

Tests used:
SRC = target: T1, SRC (Homo sapiens, UniProt P12931); experiment: Src transphosphorylation assay; type: biochemical; conditions: recombinant human Src, poly(Glu-Tyr) substrate
T1 construct: purchased UBI 14-117
Protocol: Src Transphosphorylation Assay
This assay is used to screen for inhibitors of the tyrosine kinase Src.
1. Coating buffer: PBS containing sodium azide (0.2 mg/ml).
3. Wash buffer: PBS containing 0.05% v/v Tween 20 (PBS-TWEEN)
5. ATP (40 [M)+MgCl2 (80 mM) in distilled water.
6. MgCl2 (80 mM) in distilled water (for no ATP blanks).
7. Test compounds, 10 mM in DMSO.
8. Assay Buffer: 100 mM HEPES, pH 7.4, containing 2 mM DTT, 0.2 mM sodium orthovanadate and 0.2 mgs/ml BSA.
9. Partially purified recombinant human Src (UBI (14-117)
10. Anti-phosphotyrosine (SUGEN rabbit polyclonal anti-PY).
11. HRP-linked goat anti-rabbit Ig (Biosource International #6430)
12. HRP substrate ABTS or Pierce Peroxidase substrate.
13. Corning ELISA plates.
1. Coat plates with 100 μl of 20 μg/ml poly(Glu-Tyr) (Sigma Cat. No.P0275) containing 0.01% sodium azide. Hold overnight at 4° C.
2. Block with 1% BSA at 100 μl/well for one hour at room temperature.
3. Plate test compounds (10 mM in DMSO) at 2 ul/well on a Costar plate ready for dilution with dH2O and plating to reaction plates.
4. Dilute Src kinase 1:10,000 in Reaction Buffer, for 5 plates prepare 25 ml as follows: 2.5 mls 1M HEPES pH7.4 (stored sterile at 4° C.), 21.85 ml distilled water, 0.1 ml 5% BSA, 0.5 ml 10 mM sodium orthovanadate (stored sterile at 4° C.), 50 μl 1.0M DTT (stored frozen at […]), and 2.5 μl Src Kinase (stored frozen at −80° C.).
5. Add 48 μl of distilled water to the 2 ∥l of each compound in the dilution plate then add 25 μl/well of this to the reaction plate.
6. Add 50 μl of […] to each reaction buffer well and then 25 μl ATP-MgCl2/well (MgCl2 only to no ATP blanks). Incubate at room temperature for 15 minutes on plate shaker. Stop reaction by adding 25 μl of 0.5M EDTA to each well.
7. Wash 4× with PBS-TWEEN.
8. […] Incubate with continuous shaking at room temperature for one hour.
9. Wash plates 4× with PBS-TWEEN.
10. Add 100 μl HPP-linked Ig (1:5,000) in PBS-TWEEN containing 0.5% BSA, 0.025% Non-fat milk powder, 100 μM sodium orthovanadate. Incubate with shaking at room temperature for one hour.
11. Wash plates 4× with PBS-TWEEN and then once with PBS.
12. Develop plate using ABTS or other peroxidase substrate.

MET = target: T2, MET (Homo sapiens, UniProt P08581); experiment: MET transphosphorylation assay; type: biochemical; conditions: GST fusion protein containing the Met kinase domain, poly(glu-tyr) substrate
T2 construct: Purified GST fusion protein containing the Met kinase domain, SUGEN, Inc
T2 sequence (P08581 1078-1345 limits assumed): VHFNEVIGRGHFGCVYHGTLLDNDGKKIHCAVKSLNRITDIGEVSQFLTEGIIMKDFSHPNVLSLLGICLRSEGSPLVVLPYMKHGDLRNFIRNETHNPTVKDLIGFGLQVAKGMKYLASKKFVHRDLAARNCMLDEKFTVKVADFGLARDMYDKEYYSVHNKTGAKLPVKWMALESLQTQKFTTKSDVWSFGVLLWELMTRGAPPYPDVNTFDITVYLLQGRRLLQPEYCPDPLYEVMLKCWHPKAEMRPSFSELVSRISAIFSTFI
Protocol: MET TRANSPHOSPHORYLATION ASSAY
This assay is used to measure phosphotyrosine levels on a poly(glutamic acid:tyrosine, 4:1) substrate as a means for identifying agonists/antagonists of met transphosphorylation of the substrate.
1. Corning 96-well ELISA plates, Corning Catalog #25805-96.
2. Poly(glu-tyr), 4:1, Sigma, Cat. No; P 0275.
5. Blocking Buffer: Dissolve 25 g Bovine Serum Albumin, Sigma Cat. No A-7888, in 500 ml PBS, filter through a […] filter.
6. Purified GST fusion protein containing the Met kinase domain, SUGEN, Inc.
8. 10% aqueous (MilliQue H2O) DMSO.
9. 10 mM aqueous (dH2O) Adenosine-5′-triphosphate, Sigma Cat. No. A-5394.
10. 2×Kinase Dilution Buffer: for 100 ml, mix 10 mL 1M HEPES at pH 7.5 with 0.4 mL 5% BSA/PBS, 0.2 mL 0.1 M sodium orthovanadate and 1 mL 5M sodium chloride in 88.4 mL dH2O.
11. 4×ATP Reaction Mixture: for 10 mL, mix 0.4 mL 1 M manganese chloride and 0.02 mL 0.1 M ATP in 9.56 mL dH2O.
12. 4×Negative Controls Mixture: for 10 mL, mix 0.4 mL 1 M manganese chloride in 9.6 mL dH2O.
13. NUNC 96-well V bottom polypropylene plates, Applied Scientific Catalog #S-72092
15. Antibody Dilution Buffer: for 100 mL, mix 10 mL 5% BSA/PBS, 0.5 mL 5% Carnation® Instant Milk in PBS and 0.1 mL 0.1 M sodium orthovanadate in 88.4 mL TBST.
16. Rabbit polyclonal antophosphotyrosine antibody, SUGEN, Inc.
17. Goat anti-rabbit horseradish peroxidase conjugated antibody, Biosource, Inc.
18. ABTS Solution: for 1 L, mix 19.21 g citric acid, 35.49 g Na2HPO4 and 500 mg ABTS with sufficient dH2O to make 1 L.
19. ABTS/H2O2: mix 15 mL ABST solution with 2μL H2O2 five minutes before use.
1. Coat ELISA plates with 2 μg Poly(Glu-Tyr) in 100 μL PBS, hold overnight at 4° C.
2. Block plate with 150 μL of 5% BSA/PBS for 60 min.
3. Wash plate twice with PBS then once with 50 mM Hepes buffer pH 7.4.
4. Add 50 μl of the diluted kinase to all wells. (Purified kinase is diluted with Kinase Dilution Buffer. Final concentration should be 10 ng/well.)
5. Add 25 μL of the test compound (in 4% DMSO) or DMSO alone (4% in dH2O) for controls to plate.
6. Incubate the kinase/compound mixture for 15 minutes.
7. Add 25 μL of 40 mM MnCl2 to the negative control wells.
8. Add 25 μL ATP/MnCl2 mixture to the all other wells (except the negative controls). Incubate for 5 min.
9. Add 25 μL 500 mM EDTA to stop reaction.
10. Wash plate 3× with TBST.
11. Add 100 μL rabbit polyclonal anti-Ptyr diluted 1:10,000 in Antibody Dilution Buffer to each well. Incubate, with shaking, at room temperature for one hour.
12. Wash plate 3× with TBST.
13. Dilute Biosource HRP conjugated anti-rabbit antibody 1:6,000 in Antibody Dilution buffer. Add 100 μL per well and incubate at room temperature, with shaking, for one hour.
14. Wash plate 1× with PBS.
15. Add 100 μl of ABTS/H2O2 solution to each well.
16. If necessary, stop the development reaction with the addition of 100 μl of 0.2M HCl per well.
17. Read plate on Dynatech MR7000 ELISA reader with the test filter at 410 nM and the reference filter at 630 nM.

T1 sequence (P12931 whole entry): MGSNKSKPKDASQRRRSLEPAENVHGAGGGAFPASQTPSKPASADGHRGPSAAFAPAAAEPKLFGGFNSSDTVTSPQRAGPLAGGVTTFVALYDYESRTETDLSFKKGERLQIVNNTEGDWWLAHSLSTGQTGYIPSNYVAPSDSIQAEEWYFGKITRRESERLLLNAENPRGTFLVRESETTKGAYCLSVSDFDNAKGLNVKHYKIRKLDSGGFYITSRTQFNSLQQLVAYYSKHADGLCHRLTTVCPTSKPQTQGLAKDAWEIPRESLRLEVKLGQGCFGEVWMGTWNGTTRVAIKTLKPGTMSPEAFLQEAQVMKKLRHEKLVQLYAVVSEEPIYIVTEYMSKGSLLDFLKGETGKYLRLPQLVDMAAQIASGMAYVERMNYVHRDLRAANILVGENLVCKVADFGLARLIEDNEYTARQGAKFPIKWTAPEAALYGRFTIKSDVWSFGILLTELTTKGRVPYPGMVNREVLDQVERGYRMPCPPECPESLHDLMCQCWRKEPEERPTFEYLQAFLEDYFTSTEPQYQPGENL

IC50 (SRC) [nM]	IC50 (MET) [nM]	Structure (SMILES)
8610	59	Cc1cc(C(=O)NCCN2CCCC2)c(/C=C2\C(=O)Nc3cccc(-c4ccc(F)c(Cl)c4)c32)[nH]1 [Example 119, 2-[4-(3-Chloro-4-fluoro-phenyl)-2-oxo-1,2-dihydro-indol-3-ylidenemethyl]-5-methyl-1H-pyrrole-3-carboxylic Acid (2-Pyrrolidin-1-yl-ethyl)-amide]
4310	680	CCN(CC)CCNC(=O)c1c(C)[nH]c(/C=C2\C(=O)Nc3cccc(-c4ccc(OC(F)(F)F)cc4)c32)c1C [Example 140, 2,4-Dimethyl-5-[2-oxo-4-(4-trifluoromethoxy-phenyl)-1,2-dihydro-indol-3-ylidenemethyl]-1H-pyrrole-3-carboxylic Acid (2-Diethylamino-ethyl)-amide]
